Assay [1] deals with T1, Peroxisome proliferator-activated receptor gamma (Homo sapiens, UniProt P37231).
T1 sequence (P37231 whole entry): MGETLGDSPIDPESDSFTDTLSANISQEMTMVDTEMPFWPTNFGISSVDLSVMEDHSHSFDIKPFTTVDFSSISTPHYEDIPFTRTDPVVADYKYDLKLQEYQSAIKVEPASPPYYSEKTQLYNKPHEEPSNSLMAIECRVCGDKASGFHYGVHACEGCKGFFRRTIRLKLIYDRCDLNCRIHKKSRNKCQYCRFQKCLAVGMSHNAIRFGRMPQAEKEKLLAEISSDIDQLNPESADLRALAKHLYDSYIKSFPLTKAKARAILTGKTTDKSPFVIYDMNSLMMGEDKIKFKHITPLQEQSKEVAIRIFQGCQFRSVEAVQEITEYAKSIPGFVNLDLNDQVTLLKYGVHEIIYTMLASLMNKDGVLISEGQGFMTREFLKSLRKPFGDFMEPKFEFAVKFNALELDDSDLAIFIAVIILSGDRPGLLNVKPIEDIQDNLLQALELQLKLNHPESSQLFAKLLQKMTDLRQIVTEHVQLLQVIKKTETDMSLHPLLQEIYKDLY
Nature of the assay: Agonist activity at human PPARgamma expressed in african green monkey CV1 cells co-transfected with Gal4 assessed as reporter activity by transient transactivation assay. It is filed as functional, cell-based, CV-1.

Assay [2] deals with T2, Peroxisome proliferator-activated receptor delta (Homo sapiens) (UniProt Q03181).
T2 sequence (whole entry): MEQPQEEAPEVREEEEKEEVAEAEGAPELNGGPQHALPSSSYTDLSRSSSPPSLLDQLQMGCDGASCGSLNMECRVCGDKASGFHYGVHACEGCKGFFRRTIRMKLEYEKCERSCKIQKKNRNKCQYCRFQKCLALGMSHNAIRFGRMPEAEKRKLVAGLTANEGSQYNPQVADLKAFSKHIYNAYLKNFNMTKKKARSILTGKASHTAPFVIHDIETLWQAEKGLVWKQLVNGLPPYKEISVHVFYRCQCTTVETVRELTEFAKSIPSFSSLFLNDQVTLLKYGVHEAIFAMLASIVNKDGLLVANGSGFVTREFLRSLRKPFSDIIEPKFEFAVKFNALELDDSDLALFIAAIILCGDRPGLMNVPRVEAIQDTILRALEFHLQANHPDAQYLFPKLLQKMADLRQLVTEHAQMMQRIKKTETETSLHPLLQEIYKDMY
Nature of the assay: Agonist activity at human PPARdelta expressed in african green monkey CV1 cells co-transfected with Gal4 assessed as reporter activity by transient transactivation assay. Details: concentration or dose not given beside the values. The settings on record: CV-1. It is filed as functional, cell-based.

A value given as a limit tells only on which side of the number the result lay.

For `CC(C)OC(Cc1ccc(OCCc2noc(-c3ccccc3C(F)(F)F)n2)cc1)C(=O)O` (stereo unspecified), the EC50 in assay [1] was 160 nM.
As to `CC(C)OC(Cc1ccc(OCCc2noc(-c3ccc(Cl)cc3)n2)cc1)C(=O)O` (stereo unspecified), the Activity in assay [2] came to 40%.
Same read-out and setting: the figure for `CC(C)OC(Cc1ccc(OCCc2noc(-c3ccccc3)n2)cc1)C(=O)O` (stereo unspecified) is < 40%.
For the compound `CC(C)OC(Cc1ccc(OCCc2noc(-c3ccc(F)cc3)n2)cc1)C(=O)O` (stereo unspecified), the Activity in assay [2] is < 40%.
On to `CC(C)OC(Cc1ccc(OCCc2noc(-c3cc(C(F)(F)F)cc(C(F)(F)F)c3)n2)cc1)C(=O)O` (stereo unspecified), for which the Activity in assay [2] was < 40%.
Regarding `CC(C)OC(Cc1ccc(OCc2noc(C3CCCCC3)n2)cc1)C(=O)O` (stereo unspecified), in assay [2], the Activity is < 40%.

The record behind these values is ChEMBL document CHEMBL1154456, “CoMFA analysis of dual/multiple PPAR activators” (Eur J Med Chem, 2008).
